Experimental data published in patent publication US20080026474A1, “ASSAY FOR DIFFERENTIATING COMPOUNDS THAT MODULATE THE EXTRINSIC AND/OR INTRINSIC COAGULATION PATHWAYS” (Bristol-Myers Squibb Company, priority 2006, published 2008).
“Also recorded” adds a separate entry of the source.

Columns and labels:
[1] = test system: TF-induced platelet aggregation in human platelet-rich plasma; experiment: TF-induced platelet aggregation assay (time delay / lag time) in human platelet-rich plasma; assay type: cell-based; conditions: human PRP; for time delay of platelet aggregation: 0 μM = 75 seconds; for 2×Base value (concentration required to double the time for TF-induced platelet aggregation): time delay of TF-induced platelet aggregation
Method: The remaining samples were then centrifuged at […] for 10 min to obtain platelet-poor plasma (PPP). Platelet count was adjusted to 2-2.5×10^8 cells/ml with platelet-poor plasma.
PRP (275 μl) sample was briefly mixed with 25 μl of 36 mg/ml pefabloc. Various compounds (in a volume of 1.2 μl) were added and incubated at 37° C. for 3 min in a cylindrical glass cuvette. Platelet aggregation was induced by 4 μl of Innovin®-CaCl2 mixture and measured under continuous stirring at 1000 rpm in a PA-200 platelet aggregation analyzer (Kowa, Tokyo, Japan). Platelet-poor plasma was used as a reference. Platelet aggregation curves defined by changes in light transmission over time were recorded for 15 min. The lag time was defined as the time from CaCl2 addition until the light transmittance reached 1%. The concentration of Innovin® and CaCl2 was adjusted for each sample so that the average control lag time was from 50 to 70 seconds.

[2] = test system: thrombus formation in carotid artery; experiment: Rabbit ECAT model; assay type: in vivo; conditions: i.v. infusion, drug concentration maintaining total blood flow at 80% of baseline
Method: Briefly, male, New Zealand, white rabbits were anesthetized with ketamine (50 mg/kg+50 mg/kg/h i.m.) and xylazine (10 mg/kg+10 mg/kg/h i.m.). These anesthetics were supplemented as needed. An electromagnetic flow probe was placed on a segment of an isolated carotid artery to monitor blood flow. Thrombus formation was induced by electrical stimulation of the carotid artery for 3 min at 4 mA using an external stainless steel bipolar electrode. […] Plasma concentrations were determined in blood samples taken at the end of the experiment by liquid chromatography-tandem mass spectrometry.
Carotid blood flow was measured continuously over the 90-min period of thrombus formation and total carotid blood flow was calculated as an area under the carotid blood flow-time curve. Preservation of total CBF relative to sustained baseline flow was used to assess antithrombotic activity. The drug concentrations which maintained total blood flow at 80% of baseline (ED80) was the common comparator among antithrombotic agents.

Structure (SMILES) | effect on the time delay of TF-induced platelet aggregation (in words) [1] | ED80 [2] | 2×Base value (concentration required to double the time for TF-induced platelet aggregation) [1] | also measured
NCc1ccccc1-n1nc(C(F)(F)F)cc1C(=O)Nc1ccc(-c2ccccc2S(N)(=O)=O)cc1F [1-(2-aminomethylphenyl)-3-trifluoromethyl-N-[3-fluoro-2′-(aminosulfonyl)[1,1′-biphenyl)]-4-yl]-1H-pyrazole-5-carboxyamide] | dose-dependent effects | – | – | –
CS(=O)(=O)c1ccccc1-c1ccc(NC(=O)c2cc(C(F)(F)F)nn2-c2cccc(CN)c2)c(F)c1 [Compound B, 1-[3-(aminomethyl)phenyl]-N-[3-fluoro-2′-(methylsulfonyl)[1,1′-biphenyl]-4-yl]-3-(trifluoromethyl)-1H-pyrazole-5-carboxamide] | – | 0.4 µM | – | –
COc1cc([C@@H]2Nc3ccc(C(=N)N)cc3[C@H]3c4ccccc4C[C@H]32)c(-c2ccc(C(=O)O)cc2)cc1O [Compound A, 2′-((6R,6aR,11bR)-2-Carbamimidoyl-5,6a,7,11b-tetrahydro-6H-indeno[2,1-c]quinolin-6-yl)-5′-hydroxy-4′-methoxy-biphenyl-4-carboxylic acid] | concentration-dependent effect; also recorded: Dose-dependent effect | 1.1 µM | 1.25 µM | time delay of platelet aggregation ([1]; 1.26 μM): 175 s; time delay of platelet aggregation ([1]; 4.0 μM): 286 s; time delay of platelet aggregation ([1]; 12.6 μM): 671 s; time delay of platelet aggregation ([1]; 25.2 μM): 865 s
CSCCNc1nc(SCCC(F)(F)F)nc2c1ncn2[C@@H]1O[C@H](COP(=O)(O)OP(=O)(O)C(Cl)(Cl)P(=O)(O)O)[C@@H](O)[C@H]1O [cangrelor, reference compound] | no effect | – | – | –
CNc1ncnc2c1ncn2[C@H]1C[C@H](OP(=O)(O)O)[C@@H](COP(=O)(O)O)O1 [N6-methyl-2′-deoxyadenosine-3′,5′-bisphosphate, reference compound] | no effect | – | – | –
CC(C)CC(=O)Nc1cc(-c2ccc(C(N)=O)cc2C(=O)O)cc([C@@H]2C[C@](C)(c3ccccc3)c3cc(C(=N)N)ccc3N2)c1 [Compound C, 3′-((2S,4R)-6-Carbamimidoyl-4-methyl-4-phenyl-1,2,3,4-tetrahydro-quinolin-2-yl)-4-carbamoyl-5′-(3-methyl-butyrylamino)-biphenyl-2-carboxylic acid] | barely showed any effect; also recorded: No effect | 0.8 µM | 26 µM | effect on TF-induced platelet aggregation at high dose (in words) ([1]; 40 μM): weak efficacy
CC(C)(C)c1ccccc1Oc1ncccc1NC(=O)Nc1ccc(OC(F)(F)F)cc1 [Compound F, 1-[2-(2-tert-Butyl-phenoxy)-pyridin-3-yl]-3-(4-trifluoromethoxy-phenyl)-urea] | no effect | – | ~0 µM | –
